Experiments:
Assay type in all cases: cell-based
SW837 cells = experiment: SW837 CTG proliferation assay (CRC); settings: Homo sapiens; SW837 CTG proliferation; read-out: IC50 SW837
Method: SW837 CTG Proliferation Assay (CRC)
SW837 cells (ATCC #CCL-235) were grown in cell culture flasks (175 cm^2) using L-15 10% FCS, 1% L-Glu, 1×NEAA and 1×Na-Pyrovat. Cultures were incubated at 37° C. and 0% CO2 in a humidified atmosphere, with medium change or subcultivation 2-3 times a week. Materials used for the assay were CulturPlate-384, White Opaque 384-well Microplate, Sterile and Tissue Culture Treated (Perkin Elmer #6007680), Leibovitz L15 Medium and FBS # SH30071.03 (HyClone).
(§1) The proliferation assays started (day1) with seeding cells in flat bottom 384 well microtiter plates in 90 μL L-15 10% FCS, 1% L-Glu, 1×NEAA and 1× Na-Pyrovat at a density of 500 cells/well. Any other luminescence compatible plate format is possible. On day 2, 10 μL dilutions of the test compounds covering a concentration range between app. 0, 1 and 10.000 nM were added to the cells. Cells were incubated for 5 days in a humidified, CO2 controlled (no CO2) incubator at 37° C. On day 7 100 μL of Cell Titer Glow reagent (Cell titer Glo Luminescent Cat. No. G7571, Promega) were added to each well and incubated for additional 10 min at room temperature (with agitation). Luminescence was measured on a Wallac Victor using standard luminescence read out. IC50 values were calculated using standard Levenburg Marquard algorithms (GraphPad Prism).

NCI-H358 cells = experiment: NCI-H358 CTG proliferation assay (120 h) (NSCLC); settings: Homo sapiens, read-out: IC50 NCl-H358
Method: NCI-H358 CTG Proliferation Assay (120 h) (NSCLC)
NCI-H358 cells (ATCC No. CRL-5807) were dispensed into white bottom opaque 96 well plates (Perkin Elmer cat no. 5680) at a density of 2000 cells per well in 100 μL RPMI-1640 ATCC-Formulation (Gibco # A10491)+10% FCS. Cells were incubated overnight at 37° C. in a humidified tissue culture incubator at 5% CO2. Compounds (10 mM stock in DMSO) were added at logarithmic dose series using the HP Digital Dispenser D300 (Tecan), normalizing for added DMSO. For the TO time point measurement, untreated cells were analyzed at the time of compound addition. Plates were incubated for 120 hours, and cell viability was measured using CellTiter-Glo luminescent cell viability reagent (Promega product code G7570). Viability (stated as percent of control) is defined as relative luminescence units RLU of each well divided by the RLU of cells in DMSO controls. IC50 values were determined from viability measurements by non-linear regression using a four parameter model.

MiaPaCa-2 cells = experiment: MiaPaCa-2 CTG proliferation assay (pancreatic cancer); settings: Homo sapiens, MIA PaCa-2, 120 h; MiaPaCa-2 CTG proliferation, 5 days; read-out: IC50 MiaPACA2
Method: MiaPaCa-2 CTG Proliferation Assay (Pancreatic Cancer)
MiaPaCa-2 cells (ATCC® CRM-CRL-1420™) were grown in cell culture flasks (175 cm^2) using DMEM medium supplemented with 10% fetal bovine serum. […] Materials used for the assay were CulturPlate-384, White Opaque 384-well microplate, Sterile and Tissue Culture Treated (Perkin Elmer #6007680), DMEM medium and FBS # SH30071.03 (HyClone).
as §1, with “μL DMEM medium supplemented with” for “μL L-15”, “10% FBS” for “10% FCS, 1% L-Glu, 1×NEAA and 1× Na-Pyrovat”, “humidified, incubator with 5%” for “humidified,”, “CO2” for “CO2 controlled (no CO2) incubator”, “100 μl” for “100 μL”

Compound	IC50 (SW837 cells) [nM]	IC50 (NCI-H358 cells) [nM]	IC50 (MiaPaCa-2 cells) [nM]
C=CC(=O)N1[C@H](C)CN(c2cc(O[C@@H](C)[C@@H]3CCCN3C)nc(-c3cc([C@@]4(C)CCCc5sc(N)c(C#N)c54)no3)n2)C[C@@H]1C [Ic-5]	7.15	15.7	47.9
COC/C=C/C(=O)N1CCN(c2cc(O[C@@H](C)[C@@H]3CCCN3C)nc(-c3cc([C@@]4(C)CCCc5sc(N)c(C#N)c54)on3)n2)[C@H](C)C1 [Ib-14]	11.3	19.1	36
C=CC(=O)N1CCN(c2cc(O[C@@H](C)[C@@H]3CCCN3C)nc(-c3cc([C@@]4(C)CCCc5sc(N)c(C#N)c54)on3)n2)CC12CC2 [Ib-5]	15.8	9.68	28
C=CC(=O)N1CCN(c2cc(O[C@@H](C)[C@@H]3CCCN3C)nc(-c3cc([C@@]4(C)CCCc5sc(N)c(C#N)c54)no3)n2)CC12CC2 [Ic-3]	10.6	24.3	123
C=C(F)C(=O)N1CCN(c2cc(O[C@@H](C)[C@@H]3CCCN3C)nc(-c3cc([C@@]4(C)CCCc5sc(N)c(C#N)c54)on3)n2)[C@H](C)C1 [Ib-10]	14.9	40.6	56.8
C=C(F)C(=O)N1[C@@H](C)CN(c2cc(O[C@@H](C)[C@@H]3CCCN3C)nc(-c3cc([C@@]4(C)CCCc5sc(N)c(C#N)c54)no3)n2)C[C@@H]1C [Ic-8]	36.6	93.5	396
C=CC(=O)N1CCC(Oc2cc(N3CCN(C)C[C@@H]3C)nc(-c3cc(C4(C)CCCc5sc(N)c(C#N)c54)no3)n2)CC1 (stereo partly drawn) [Ic-7]	44.7	76.8	332
COC/C=C/C(=O)N1CCN(c2cc(O[C@@H](C)[C@@H]3CCCN3C)nc(-c3cc(C4(C)CCCc5sc(N)c(C#N)c54)no3)n2)CC1 (stereo partly drawn) [Ic-9]	124	169	332

Compounds with a lower IC50 (SW837 cells), results first:

IC50 (SW837 cells) [nM]	IC50 (NCI-H358 cells) [nM]	IC50 (MiaPaCa-2 cells) [nM]	Compound
0.67	1.87	22.6	C=CC(=O)N1CCN(c2cc(O[C@@H](C)[C@@H]3CCCN3C)nc(-c3cc([C@@]4(C)CCCc5sc(N)c(C#N)c54)on3)n2)[C@H](C)C1 [Ib-1]
0.2	0.44	2.25	C=CC(=O)N1CCN(c2cc(O[C@@H](C)[C@@H]3CCCN3C)nc(-c3cc([C@@]4(C)CCCc5sc(N)c(C#N)c54)sn3)n2)CC1 [Id-1]
0.8	5.98	26.9	C=CC(=O)N1CCN(c2cc(O[C@@H](C)[C@@H]3CCCN3C)nc(-c3cc([C@@]4(C)CCCc5sc(N)c(C#N)c54)sn3)n2)CC12CC2 [Id-5]
0.35	0.93	13.8	C=CC(=O)N1CCC(Oc2cc(O[C@@H](C)[C@@H]3CCCN3C)nc(-c3cc([C@@]4(C)CCCc5sc(N)c(C#N)c54)sn3)n2)CC1 [Id-6]
0.68	1.09	15.3	C=CC(=O)N1[C@@H](C)CN(c2cc(O[C@@H](C)[C@@H]3CCCN3C)nc(-c3cc([C@@]4(C)CCCc5sc(N)c(C#N)c54)sn3)n2)C[C@@H]1C [Id-4]
0.69	0.55	20.1	C=CC(=O)N1[C@@H](C)CN(c2cc(O[C@@H](C)[C@@H]3CCCN3C)nc(-c3cc([C@@]4(C)CCCc5sc(N)c(C#N)c54)on3)n2)C[C@@H]1C [Ib-4]
1.62	2.49	6.87	C=CC(=O)N1[C@@H](C)CN(c2cc(O[C@@H](C)[C@@H]3CCCN3C)nc(-c3cc([C@@]4(C)CCCc5sc(N)c(C#N)c54)no3)n2)C[C@@H]1C [Ic-4]
1.09	2.57	21.3	C=CC(=O)N1[C@H](C)CN(c2cc(O[C@@H](C)[C@@H]3CCCN3C)nc(-c3cc([C@@]4(C)CCCc5sc(N)c(C#N)c54)sn3)n2)C[C@@H]1C [Id-2]
5.63	34.6	105	C=C(F)C(=O)N1[C@@H](C)CN(c2cc(O[C@@H](C)[C@@H]3CCCN3C)nc(-c3cc([C@@]4(C)CCCc5sc(N)c(C#N)c54)on3)n2)C[C@@H]1C [Ib-11]
< 1	1.67	9	C=CC(=O)N1CCN(c2cc(O[C@@H](C)[C@@H]3CCCN3C)nc(-c3cc(C4(C)CCCc5sc(N)c(C#N)c54)on3)n2)CC1 (stereo partly drawn) [Ib-6]

Reference: patent US11945812B2, “Annulated 2-amino-3-cyano thiophenes and derivatives for the treatment of cancer” (Boehringer Ingelheim International GmbH, priority 2020, dated 2024)
